Measured values: patent US8759366B2, “Aminopyrimidines as SYK inhibitors” (Merck Sharp & Dohme Corp., priority 2009, dated 2014)
Where a name gives a salt, the structure may show the parent alone.

What follows are molecules tested against rhSYK (Homo sapiens (Human), UniProt P43405). Settings: read-out: rhSYK activity.
With `Cc1cc(Nc2nccc(C(F)(F)F)n2)cc(-c2cnc(C3(O)CCN(S(=O)(=O)NC(=O)OC(C)(C)C)CC3)s2)c1` [Example 48, tert-butyl({4-hydroxy-4-[5-(3-methyl-5-{[4-(trifluoromethyl)pyrimidin-2-yl]amino}phenyl)-1,3-thiazol-2-yl]piperidin-1-yl}sulfonyl)carbamate] the IC50 was < 100 nM. In the case of `Cc1cc(Nc2nccc(C(F)(F)F)n2)cc(-c2cnc(C3(O)CCN(S(N)(=O)=O)CC3)s2)c1` [Example 49, 4-hydroxy-4-[5-(3-methyl-5-{[4-(trifluoromethyl)pyrimidin-2-yl]amino}phenyl)-1,3-thiazol-2-yl]piperidine-1-sulfonamide], the IC50 is reported as < 100 nM. `Cc1cc(Nc2nccc(C(F)(F)F)n2)cc(-c2cnc(C3(O)CCN(S(=O)(=O)c4ccccc4)CC3)s2)c1` [Example 50, 4-[5-(3-methyl-5-{[4-(trifluoromethyl)pyrimidin-2-yl]amino}phenyl)-1,3-thiazol-2-yl]-1-(phenylsulfonyl)piperidin-4-ol] showed an IC50 of 100 to 1000 nM. In the case of `CC(=O)N1CCC(O)(c2ncc(-c3cc(C)cc(Nc4nccc(C(F)(F)F)n4)c3)s2)CC1` [Example 51, 1-(4-hydroxy-4-[5-(3-methyl-5-{[4-(trifluoromethyl)pyrimidin-2-yl]amino}phenyl)-1,3-thiazol-2-yl]piperidin-1-yl)ethanone], the IC50 is reported as < 100 nM. With `CNC(=O)N1CCC(O)(c2ncc(-c3cc(C)cc(Nc4nccc(C(F)(F)F)n4)c3)s2)CC1` [Example 52, 4-hydroxy-N-methyl-4-[5-(3-methyl-5-{[4-(trifluoromethyl)pyrimidin-2-yl]amino}phenyl)-1,3-thiazol-2-yl]piperidine-1-carboxamide] the IC50 was < 100 nM. `Cc1cc(Nc2nccc(C(F)(F)F)n2)cc(-c2cnc(C3(O)CN(C(C)(C)C(=O)O)C3)s2)c1` [Example 53(1), 2-{3-Hydroxy-3-[5-(3-methyl-5-{[4-(trifluoromethyl)pyrimidin-2-yl]amino}phenyl)-1,3-thiazol-2-yl]azetidin-1-yl}-2-methylpropanoic acid] was tested, and the IC50 was < 100 nM. For `Cc1cc(Nc2nccc(C(F)(F)F)n2)cc(-c2cnc(C3(O)CN(C(C)(C)C(=O)OC(C)(C)C(=O)O)C3)s2)c1` [Example 53(2), 2-[(2-{3-Hydroxy-3-[5-(3-methyl-5-{[4-(trifluoromethyl)pyrimidin-2-yl]amino}phenyl)-1,3-thiazol-2-yl]azetidin-1-yl}-2-methylpropanoyl)oxy]-2-methylpropanoic acid], the IC50 was < 100 nM. For `Cc1cc(Nc2nccc(C(F)(F)F)n2)cc(-c2cnc([C@]3(O)CC[C@@H](c4n[nH]c(=O)o4)CC3)s2)c1` [Example 55, 5-{cis-4-hydroxy-4-[5-(3-methyl-5-{[4-(trifluoromethyl)pyrimidin-2-yl]amino}phenyl)-1,3-thiazol-2-yl]cyclohexyl}-1,3,4-oxadiazol-2(3H)-one], the IC50 was < 100 nM. In the case of `Cc1cc(Nc2nccc(C(C)C)n2)cc(-c2cnc(C3(O)CCC3)s2)c1` [Example 56, 1-[5-(3-methyl-5-{[4-(propan-2-yl)pyrimidin-2-yl]amino}phenyl)-1,3-thiazol-2-yl]cyclobutanol HCl salt], the IC50 is reported as < 100 nM. For `CC(O)(CO)c1ncc(-c2cc(F)cc(Nc3ncc(F)c(C4CC4)n3)c2)s1` (stereo not drawn) [Example 57, 2-(5-{3-[(4-cyclopropyl-5-fluoropyrimidin-2-yl)amino]-5-fluorophenyl}-1,3-thiazol-2-yl)propane-1,2-diol], the IC50 was < 100 nM. With `Cc1cc(Nc2ncc(F)c(C3CC3)n2)cc(-c2cnc(C(O)(CO)C(F)(F)F)s2)c1` (stereo not drawn) [Example 58, 2-(5-{3-[(4-cyclopropyl-5-fluoropyrimidin-2-yl)amino]-5-methylphenyl}-1,3-thiazol-2-yl)-3,3,3-trifluoropropane-1,2-diol] the IC50 was < 100 nM. For `Cc1cc(Nc2nccc(C(F)(F)F)n2)cc(-c2cnc(C3(NS(C)(=O)=O)COC3)s2)c1` [Example 60, N-{3-[5-(3-methyl-5-{[4-(trifluoromethyl)pyrimidin-2-yl]amino}phenyl)-1,3-thiazol-2-yl]-oxetan-3-yl}methanesulfonamide], the IC50 was < 100 nM.
